Source: US12662479B2 (Foghorn Therapeutics Inc., priority 2020, dated 2026)

Tests used:
HiBit-BRM fusion protein = biological target: T1, HiBit-BRM fusion protein (Homo sapiens, UniProt P51531); test: HiBiT-BRM cell-based degradation assay (Nano-Glo HiBiT Lytic Detection, 24 h); conditions: HeLa cells expressing HiBiT-BRM; for DC50: read-out: BRM HiBit Degradation IC50; for BRM HiBit Degradation Maximum measured: top dose 30 μM
T1 construct: expressed in transfected cells
Method in brief: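 HeLa cells stably expressing HiBiT-BRM were treated for 24 h with compounds (10-point 3-fold dilutions, 30 μM final top dose, in duplicate). HiBiT was detected by lytic LgBiT complementation luminescence. % degradation was normalized to DMSO (high control) and 2 μM of a reference BRM/BRG1 degrader (low control).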

[1] = biological target: T2, HiBit-BRG1 fusion protein (Homo sapiens, UniProt P51532); test: HiBiT-BRG1 cell-based degradation assay (Nano-Glo HiBiT Lytic Detection, 24 h); conditions: HeLa cells expressing HiBit-BRG1 and LgBit; for DC50: read-out: BRG1 HiBit Degradation IC50; for Dmax: HeLa, top dose 30 μM, read-out: BRG1 HiBit Degradation Maximum measured
T2 construct: expressed in transfected cells
Method in brief: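 Stable HeLa line expressing HiBiT-BRG1 and LgBiT, seeded at 5000 cells/well; luminescence read after lytic Nano-Glo HiBiT reagent and 10 min shaking at RT. % degradation normalised between DMSO (high control) and 2 μM reference BRM/BRG1 degrader (low control).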

T1 sequence (P51531 whole entry, the tested form may be a part): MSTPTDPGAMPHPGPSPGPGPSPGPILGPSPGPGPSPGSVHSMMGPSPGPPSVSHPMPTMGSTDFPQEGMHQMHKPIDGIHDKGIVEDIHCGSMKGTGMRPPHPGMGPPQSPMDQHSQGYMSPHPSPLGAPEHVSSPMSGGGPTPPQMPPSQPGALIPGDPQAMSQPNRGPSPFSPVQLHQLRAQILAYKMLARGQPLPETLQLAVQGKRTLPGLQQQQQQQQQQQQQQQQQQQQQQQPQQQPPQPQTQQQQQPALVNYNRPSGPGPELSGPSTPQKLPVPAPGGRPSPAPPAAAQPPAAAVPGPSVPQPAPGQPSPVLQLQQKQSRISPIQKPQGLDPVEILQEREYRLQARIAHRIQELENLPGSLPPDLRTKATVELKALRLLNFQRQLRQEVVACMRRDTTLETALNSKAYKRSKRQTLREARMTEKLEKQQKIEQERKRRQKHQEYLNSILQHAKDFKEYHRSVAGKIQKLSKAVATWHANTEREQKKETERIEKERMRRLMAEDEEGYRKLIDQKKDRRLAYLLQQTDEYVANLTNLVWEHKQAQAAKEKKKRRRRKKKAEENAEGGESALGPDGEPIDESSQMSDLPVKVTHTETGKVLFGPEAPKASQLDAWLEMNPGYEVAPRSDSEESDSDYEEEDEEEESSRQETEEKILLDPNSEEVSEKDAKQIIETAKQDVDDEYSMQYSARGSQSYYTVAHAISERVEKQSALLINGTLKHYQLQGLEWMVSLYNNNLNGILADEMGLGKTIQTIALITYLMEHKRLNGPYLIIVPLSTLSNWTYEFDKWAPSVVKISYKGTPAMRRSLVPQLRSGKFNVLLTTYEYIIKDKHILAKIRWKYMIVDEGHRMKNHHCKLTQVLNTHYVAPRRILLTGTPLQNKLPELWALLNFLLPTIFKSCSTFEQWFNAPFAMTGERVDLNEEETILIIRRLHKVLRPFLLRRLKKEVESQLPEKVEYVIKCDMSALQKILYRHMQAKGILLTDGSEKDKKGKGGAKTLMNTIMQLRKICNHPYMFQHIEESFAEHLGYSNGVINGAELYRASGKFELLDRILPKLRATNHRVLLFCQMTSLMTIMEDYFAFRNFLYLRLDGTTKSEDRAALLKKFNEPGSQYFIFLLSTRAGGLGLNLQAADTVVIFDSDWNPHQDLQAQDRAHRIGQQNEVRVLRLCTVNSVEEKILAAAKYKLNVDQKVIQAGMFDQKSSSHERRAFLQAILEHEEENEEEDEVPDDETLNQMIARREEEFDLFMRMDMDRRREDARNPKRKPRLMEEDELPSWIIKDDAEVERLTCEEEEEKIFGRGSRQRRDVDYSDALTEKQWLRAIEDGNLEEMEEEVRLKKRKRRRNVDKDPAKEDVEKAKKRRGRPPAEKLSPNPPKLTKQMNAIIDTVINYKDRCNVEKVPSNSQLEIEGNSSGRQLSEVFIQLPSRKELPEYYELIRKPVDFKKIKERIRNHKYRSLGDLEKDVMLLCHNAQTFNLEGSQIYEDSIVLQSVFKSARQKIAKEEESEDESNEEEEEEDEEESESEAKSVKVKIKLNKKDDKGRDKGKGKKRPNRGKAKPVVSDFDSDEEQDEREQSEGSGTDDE
T2 sequence (P51532 whole entry, the tested form may be a part): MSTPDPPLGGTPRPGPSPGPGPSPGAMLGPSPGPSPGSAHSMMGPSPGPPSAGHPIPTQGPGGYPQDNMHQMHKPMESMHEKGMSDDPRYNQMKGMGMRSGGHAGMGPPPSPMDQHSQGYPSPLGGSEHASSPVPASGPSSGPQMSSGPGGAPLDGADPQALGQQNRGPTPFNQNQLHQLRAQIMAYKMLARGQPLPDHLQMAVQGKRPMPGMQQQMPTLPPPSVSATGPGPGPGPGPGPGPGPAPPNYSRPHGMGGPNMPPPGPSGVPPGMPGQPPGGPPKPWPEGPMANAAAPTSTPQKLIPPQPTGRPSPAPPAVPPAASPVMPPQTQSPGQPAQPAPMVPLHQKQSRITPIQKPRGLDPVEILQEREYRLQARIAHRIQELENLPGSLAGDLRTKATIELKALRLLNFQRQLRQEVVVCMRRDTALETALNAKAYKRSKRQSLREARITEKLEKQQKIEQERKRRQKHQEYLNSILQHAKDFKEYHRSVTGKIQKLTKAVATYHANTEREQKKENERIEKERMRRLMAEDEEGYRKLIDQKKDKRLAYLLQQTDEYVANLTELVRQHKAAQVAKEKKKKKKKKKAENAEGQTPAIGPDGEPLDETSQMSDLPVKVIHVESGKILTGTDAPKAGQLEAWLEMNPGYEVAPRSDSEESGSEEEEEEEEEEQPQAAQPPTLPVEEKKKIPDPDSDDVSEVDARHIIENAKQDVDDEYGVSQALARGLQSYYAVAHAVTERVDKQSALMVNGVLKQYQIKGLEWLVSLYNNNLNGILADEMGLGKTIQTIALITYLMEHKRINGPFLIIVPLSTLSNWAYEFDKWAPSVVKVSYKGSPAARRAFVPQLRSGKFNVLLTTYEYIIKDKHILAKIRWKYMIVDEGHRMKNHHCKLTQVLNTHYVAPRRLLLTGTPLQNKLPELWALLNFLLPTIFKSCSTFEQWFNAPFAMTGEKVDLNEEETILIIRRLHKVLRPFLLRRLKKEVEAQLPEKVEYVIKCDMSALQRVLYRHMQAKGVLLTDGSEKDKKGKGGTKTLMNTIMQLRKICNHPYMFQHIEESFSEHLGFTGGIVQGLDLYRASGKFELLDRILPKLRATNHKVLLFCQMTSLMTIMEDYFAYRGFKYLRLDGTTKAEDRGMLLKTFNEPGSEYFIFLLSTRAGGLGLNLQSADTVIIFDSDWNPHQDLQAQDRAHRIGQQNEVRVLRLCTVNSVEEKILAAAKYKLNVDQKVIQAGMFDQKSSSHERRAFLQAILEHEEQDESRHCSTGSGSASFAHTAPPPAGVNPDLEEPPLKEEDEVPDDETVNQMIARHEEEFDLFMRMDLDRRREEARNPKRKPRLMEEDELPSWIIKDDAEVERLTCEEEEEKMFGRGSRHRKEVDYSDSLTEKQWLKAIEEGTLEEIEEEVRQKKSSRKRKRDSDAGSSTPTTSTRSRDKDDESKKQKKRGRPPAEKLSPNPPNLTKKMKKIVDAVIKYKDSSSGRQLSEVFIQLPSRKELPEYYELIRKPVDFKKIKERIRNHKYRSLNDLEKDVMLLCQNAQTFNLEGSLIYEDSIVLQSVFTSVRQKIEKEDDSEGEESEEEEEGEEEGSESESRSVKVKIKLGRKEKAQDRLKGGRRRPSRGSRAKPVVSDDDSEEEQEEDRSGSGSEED

DC50 (HiBit-BRM fusion protein) [µM] | BRM HiBit Degradation Maximum measured (HiBit-BRM fusion protein) | DC50 [1] [µM] | Dmax [1] [%] | Structure (SMILES)
> 10 | C (‘C’ = Maximum degradation <50%) | > 10 | < 50 | CN(CC(=O)NCCOCCOCCNc1cccc2c1C(=O)N(C1CCC(=O)NC1=O)C2=O)c1cc(-c2cccc(-c3csc(NC(=O)CNC(=O)c4ccn(S(C)(=O)=O)c4)n3)c2)ccn1 (centres unmarked) [Compound 9, N-(2-((4-(3-(2-((2-((2-(2-(2-((2-(2,6-dioxopiperidin-3-yl)-1,3-dioxoisoindolin-4-yl)amino)ethoxy)ethoxy)ethyl)amino)-2-oxoethyl)(methyl)amino)pyridin-4-yl)phenyl)thiazol-2-yl)amino)-2-oxoethyl)-1-(methylsulfonyl)-1H-pyrrole-3-carboxamide]
> 10 | C (‘C’ = Maximum degradation <50%) | > 10 | < 50 | CS(=O)(=O)n1ccc(C(=O)N[C@@H](COCCCC(=O)NCCCCNc2ccc3c(c2)C(=O)N(C2CCC(=O)NC2=O)C3=O)C(=O)Nc2nc(-c3ccccc3)cs2)c1 (stereo partly drawn) [Compound 229, N-(4-[[2-(2,6-dioxopiperidin-3-yl)-1,3-dioxoisoindol-5-yl]amino]butyl)-4-[(2S)-2-[(1-methanesulfonylpyrrol-3-yl)formamido]-2-[(4-phenyl-1,3-thiazol-2-yl)carbamoyl]ethoxy]butanamide]
> 10 | C (‘C’ = Maximum degradation <50%) | > 10 | < 50 | CS(=O)(=O)n1ccc(C(=O)NC(CCOCCCC(=O)NC2CCN(CCOc3ccc4c(c3)C(=O)N(C3CCC(=O)NC3=O)C4=O)CC2)C(=O)Nc2nc(-c3ccccc3)cs2)c1 [Compound 279, (2S)-4-(3-[[1-(2-[[2-(2,6-dioxopiperidin-3-yl)-1,3-dioxoisoindol-5-yl]oxylethyl)piperidin-4-yl]carbamoyl]propoxy)-2-[(1-methanesulfonylpyrrol-3-yl)formamido]-N-(4-phenyl-1,3-thiazol-2-yl)butanamide; formic acid]
> 10 | C (‘C’ = Maximum degradation <50%) | > 10 | < 50 | CS(=O)(=O)n1ccc(C(=O)N[C@@H](COCc2ccc(C(=O)NCCOCCOCCOCCNC(=O)COc3cccc4c3C(=O)N(C3CCC(=O)NC3=O)C4=O)cc2)C(=O)Nc2nc(-c3ccccc3)cs2)c1 (stereo partly drawn) [Compound 236, N-((2S)-3-((4-((1-((2-(2,6-dioxopiperidin-3-yl)-1,3-dioxoisoindolin-4-yl)oxy)-2-oxo-6,9,12-trioxa-3-azatetradecan-14-yl)carbamoyl)benzyl)oxy)-1-oxo-1-((4-phenylthiazol-2-yl)amino)propan-2-yl)-1-(methylsulfonyl)-1H-pyrrole-3-carboxamide]
> 10 | C (‘C’ = Maximum degradation <50%) | > 10 | < 50 | CS(=O)(=O)n1ccc(C(=O)N[C@@H](CCCCNC(=O)CCN2CC3(C2)CN(c2ccc4c(c2)C(=O)N(C2CCC(=O)NC2=O)C4=O)C3)C(=O)Nc2nc(-c3ccccc3)cs2)c1 (stereo partly drawn) [Compound 294, (2S)-6-(3-[6-[2-(2,6-dioxopiperidin-3-yl)-1,3-dioxoisoindol-5-yl]-2,6-diazaspiro[3.3]heptan-2-yl]propanamido)-2-[(1-methanesulfonylpyrrol-3-yl)formamido]-N-(4-phenyl-1,3-thiazol-2-yl)hexanamide]
> 10 | C (‘C’ = Maximum degradation <50%) | > 10 | < 50 | CC(C)(C(=O)N1CCC(C2CCN(C(=O)COc3cccc4c3C(=O)N(C3CCC(=O)NC3=O)C4=O)CC2)CC1)n1ccc(-c2cccc(-c3csc(NC(=O)CNC(=O)c4ccn(S(C)(=O)=O)c4)n3)c2)n1 (centres unmarked) [Compound 10, N-[2-[[4-[3-[1-[2-[4-[1-[2-[2-(2,6-dioxo-3-piperidyl)-1,3-dioxo-isoindolin-4-yl]oxyacetyl]-4-piperidyl]-1-piperidyl]-1,1-dimethyl-2-oxo-ethyl]pyrazol-3-yl]phenyl]thiazol-2-yl]amino]-2-oxo-ethyl]-1-methylsulfonylpyrrole-3-carboxamide]
> 10 | C (‘C’ = Maximum degradation <50%) | > 10 | < 50 | CS(=O)(=O)n1ccc(C(=O)N[C@@H](CCOCCCC(=O)NCCS(=O)(=O)CCNc2cccc3c2C(=O)N(C2CCC(=O)NC2=O)C3=O)C(=O)Nc2nc(-c3ccccc3)cs2)c1 (stereo partly drawn) [Compound 253, (2S)-4-(3-[[2-(2-[[2-(2,6-dioxopiperidin-3-yl)-1,3-dioxoisoindol-4-yl]amino]ethanesulfonyl)ethyl]carbamoyl]propoxy)-2-[(1-methanesulfonylpyrrol-3-yl)formamido]-N-(4-phenyl-1,3-thiazol-2-yl)butanamide]
> 10 | C (‘C’ = Maximum degradation <50%) | > 10 | < 50 | CS(=O)(=O)n1ccc(C(=O)NCC(=O)Nc2nc(-c3cccc(-c4ccnc(N5CCN(C(=O)CCCOc6cccc7c6C(=O)N(C6CCC(=O)NC6=O)C7=O)CC5)c4)c3)cs2)c1 (centres unmarked) [Compound 33, N-[2-[[4-[3-[2-[4-[4-[2-(2,6-dioxo-3-piperidyl)-1,3-dioxo-isoindolin-4-yl]oxybutanoyl]piperazin-1-yl]-4-pyridyl]phenyl]thiazol-2-yl]amino]-2-oxo-ethyl]-1-methylsulfonyl-pyrrole-3-carboxamide]
> 10 | C (‘C’ = Maximum degradation <50%) | > 10 | < 50 | CS(=O)(=O)n1ccc(C(=O)N[C@@H](COCCCC(=O)NCCOc2ccc3c(c2)C(=O)N(C2CCC(=O)NC2=O)C3=O)C(=O)Nc2nc(-c3ccccc3)cs2)c1 (some centres unmarked) [Compound 228]
> 10 | C (‘C’ = Maximum degradation <50%) | > 10 | < 50 | Cc1ncsc1-c1ccc(CNC(=O)[C@H]2C[C@@H](O)CN2C(=O)[C@@H](NC(=O)COCCOCCOCCNC(=O)CCCOCC[C@H](NC(=O)c2ccn(S(C)(=O)=O)c2)C(=O)Nc2nc(-c3ccccc3)cs2)C(C)(C)C)cc1 [Compound 250, (2R,4R)-4-hydroxy-1-[(2S)-2-(2-[2-[2-(2-[4-[(3S)-3-[(1-methanesulfonylpyrrol-3-yl)formamido]-3-[(4-phenyl-1,3-thiazol-2-yl)carbamoyl]propoxy]butanamido]ethoxy)ethoxy]ethoxy]acetamido)-3,3-dimethylbutanoyl]-N-[[4-(4-methyl-1,3-thiazol-5-yl)phenyl]methyl]pyrrolidine-2-carboxamide]
> 10 | C (‘C’ = Maximum degradation <50%) | > 10 | < 50 | Cc1ncsc1-c1ccc(CNC(=O)[C@@H]2C[C@@H](O)CN2C(=O)[C@@H](NC(=O)CCCCCCCNC(=O)CCCOCC[C@H](NC(=O)c2ccn(S(C)(=O)=O)c2)C(=O)Nc2nc(-c3ccccc3)cs2)C(C)(C)C)cc1 [Compound 218, (2S,4R)-4-hydroxy-1-[(2S)-2-(8-[4-[(3S)-3-[(1-methanesulfonylpyrrol-3-yl)formamido]-3-[(4-phenyl-1,3-thiazol-2-yl)carbamoyl]propoxy]butanamido]octanamido)-3,3-dimethylbutanoyl]-N-[[4-(4-methyl-1,3-thiazol-5-yl)phenyl]methyl]pyrrolidine-2-carboxamide]
> 10 | C (‘C’ = Maximum degradation <50%) | > 10 | < 50 | CS(=O)(=O)n1ccc(C(=O)N[C@@H](COCc2ccc(C(=O)N3CCN(CCCC#Cc4ccc5c(c4)C(=O)N(C4CCC(=O)NC4=O)C5=O)CC3)cc2)C(=O)Nc2nc(-c3ccccc3)cs2)c1.O=CO (stereo partly drawn) [Compound 239, (2S)-3-[[4-(4-[5-[2-(2,6-dioxopiperidin-3-yl)-1,3-dioxoisoindol-5-yl]pent-4-yn-1-yl]piperazine-1-carbonyl)phenyl]methoxy]-2-[(1-methanesulfonylpyrrol-3-yl)formamido]-N-(4-phenyl-1,3-thiazol-2-yl)propanamide; formic acid]

Structure (SMILES) | DC50 (HiBit-BRM fusion protein) [µM] | BRM HiBit Degradation Maximum measured (HiBit-BRM fusion protein) | DC50 [1] [µM] | Dmax [1] [%]
CS(=O)(=O)n1ccc(C(=O)NCC(=O)Nc2nc(-c3cccc(-c4ccnc(OCCNC(=O)CCOCCOCCOc5cccc6c5C(=O)N(C5CCC(=O)NC5=O)C6=O)c4)c3)cs2)c1 (centres unmarked) [Compound 68, N-[2-[[4-[3-[2-[2-[3-[2-[2-[2-(2,6-dioxo-3-piperidyl)-1,3-dioxoisoindolin-4-yl]oxyethoxy]ethoxy]propanoylamino]ethoxy]-4-pyridyl]phenyl]thiazol-2-yl]amino]-2-oxo-ethyl]-1-methylsulfonyl-pyrrole-3-carboxamide] | 0.1 to 1 | B (‘B’ = Maximum degradation ≥50% and ≤75%) | 0.1 to 1 | 50 to 75
CS(=O)(=O)n1ccc(C(=O)N[C@@H](CCOCCCC(=O)N2CC(Oc3ccc4c(c3)C(=O)N(C3CCC(=O)NC3=O)C4=O)C2)C(=O)Nc2nc(-c3ccccc3)cs2)c1 (stereo partly drawn) [Compound 256, (2S)-4-[4-(3-[[2-(2,6-dioxopiperidin-3-yl)-1,3-dioxoisoindol-5-yl]oxy]azetidin-1-yl)-4-oxobutoxy]-2-[(1-methanesulfonylpyrrol-3-yl)formamido]-N-(4-phenyl-1,3-thiazol-2-yl)butanamide] | > 10 | C (‘C’ = Maximum degradation <50%) | > 10 | < 50
